Patent US20110105397A1, “METHOD FOR TREATING HEART FAILURE WITH STRESSCOPIN-LIKE PEPTIDES” (priority 2009, published 2011)
pKi: −log10 of the molar value. “And” between values parts separate entries of the source, which are not always exact repeats. Equal values may be shown once.

How the values were obtained:
[1] = target: T1, CRHR1 (Homo sapiens, UniProt P34998); assay: cAMP assay, h-CRHR1 transfected SK-N-MC cells; format: cell-based; parameters: expressed in transfected cells; details: Table 11; for EC50: h-CRHR1 transfected SK-N-MC cells, 1 hr at 37° Celsius, read-out: pA50 (Experimental) (converted)
T1 sequence (P34998 24-415): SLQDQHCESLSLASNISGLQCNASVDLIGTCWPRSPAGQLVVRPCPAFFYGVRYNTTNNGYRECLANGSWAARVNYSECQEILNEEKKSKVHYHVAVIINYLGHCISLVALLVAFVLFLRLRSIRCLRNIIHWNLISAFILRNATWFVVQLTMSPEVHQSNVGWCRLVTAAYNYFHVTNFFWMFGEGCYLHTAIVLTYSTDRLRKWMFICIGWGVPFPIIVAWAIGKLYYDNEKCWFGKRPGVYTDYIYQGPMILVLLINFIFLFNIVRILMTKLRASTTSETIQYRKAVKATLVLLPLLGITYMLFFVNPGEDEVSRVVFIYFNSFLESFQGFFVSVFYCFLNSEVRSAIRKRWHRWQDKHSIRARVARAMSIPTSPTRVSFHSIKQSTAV
Procedure: Human CRHR1 (accession number X72304) or CRHR2 (accession number U34587) were cloned into pcDNA3.1/Zeo expression vector and stably transfected into SK—N-MC cells by electroporation. Cells were maintained in MEM w/Earl's Salt with 10% FBS, 50 I.U. penicillin, 50 μg/ml streptomycin, 2 mM L-glutamine, 1 mM sodium pyruvate and 0.1 mM non-essential amino acids, 600 μg/ml G418. Cells were grown at 37° C. in 5% CO2
Cells were plated in 96-well tissue culture dishes (Biocoat from BD Biosciences) overnight at 50,000 cell/well. Cells were washed with PBS then resuspended in DMEM F-12 without phenol red, containing 10 μM isobutylmethylxanthine (IBMX). Cells were incubated with the peptides at concentrations ranging from 1 pM to 10 μM for 60 min at 37° Celsius. […] Forskolin (10 μM), a direct stimulant of adenylate cyclase, was used as positive control. The assays were stopped by the addition of 0.5 M HCl and mixing by orbital rotation for 2 h at 4° Celsius.
Transfected SK—N-MC cells were plated in 96-well Biocoat tissue culture dishes (BD Biosciences, San Jose, Calif., U.S.A) overnight at 50,000 cell/well. Cells were first washed with PBS and then suspended with DMEM/F-12 without phenol red, containing […]. Suspended cells were transferred into a 96-well flash plate coated with scintillant fluid. Cells were incubated with peptides ranging from 1 pM to 1 μM, for 60 min, at 37° Celsius. Forskolin at 10 μM was used as positive control. After ligand stimulation, cells were lysed by the addition of 0.5M HCl and mixed by orbital rotation for 2 h at 4° Celsius in order to release intracellular cAMP into the media.
Media containing released intracellular cAMP was transferred to a 96-well flash plate coated with scintillant fluid containing an anti-cAMP antibody. […] To generate a standard curve, cAMP ranging from 2.5 to 250 pmoles/ml was included in the experiment.
Individual agonist concentration-response curve data were fitted to the Hill equation, see formula below, using GraphPad Prism (Graphpad Software, La Jolla, Calif., U.S.A.), to provide estimates of agonist concentration needed to generate one-half maximal response (A50), and the maximal asymptote (α) and Hill slope (nH) parameters. In this equation, [A] is the agonist concentration and E is the measured effect:
For display purposes the mean fitted parameter estimates were used to generate a single E/[A] curve shown superimposed on the mean experimental data. Potency estimates for agonists, pA50, are expressed as the negative logarithm of the midpoint of each curve and listed with their standard error of measurement (SEM).
Human and rat peptides (see Table 10) were used on the stimulation of h-CRHR1 or h-CRHR2 transfected SK—N-MC cells in the cAMP flash plate assay. Peptides were incubated for 1 hr at 37° Celsius. Curves were calculated using non-linear regression sigmoidal concentration-response analysis calculation in GraphPad Prism.

[2] = target: T1, CRHR1; assay: CRHR1 radioligand binding, [125I]-(Tyr0)-sauvagine; parameters: host or cells: cell membranes
Text: The solution was then homogenized with a Polytron tissue grinder at a setting of 10 and 7×3 s (Brinkmann Instruments, Westbury, N.Y.). […] The bound radioactivity was separated by filtration using a Multiscreen Resist manifold (Millipore Corp., Billerica, Mass., U.S.A). The filters were washed three times with ice-cold PBS at pH 7.5 and radioactivity retained on the filters was quantified by its liquid scintillation measured by a TopCount counter (Packard BioScience, Boston, Mass., U.S.A). All experiments were performed in triplicate.

[3] = target: T2, h-CRHR2b (Homo sapiens, UniProt Q13324); details: h-CRHR2b transfected HEK-293 cells, approximated values from concentration response curves (Hsu et al., 2001); cited from earlier work
T2 sequence (Q13324 1-438 isoform Q13324-2): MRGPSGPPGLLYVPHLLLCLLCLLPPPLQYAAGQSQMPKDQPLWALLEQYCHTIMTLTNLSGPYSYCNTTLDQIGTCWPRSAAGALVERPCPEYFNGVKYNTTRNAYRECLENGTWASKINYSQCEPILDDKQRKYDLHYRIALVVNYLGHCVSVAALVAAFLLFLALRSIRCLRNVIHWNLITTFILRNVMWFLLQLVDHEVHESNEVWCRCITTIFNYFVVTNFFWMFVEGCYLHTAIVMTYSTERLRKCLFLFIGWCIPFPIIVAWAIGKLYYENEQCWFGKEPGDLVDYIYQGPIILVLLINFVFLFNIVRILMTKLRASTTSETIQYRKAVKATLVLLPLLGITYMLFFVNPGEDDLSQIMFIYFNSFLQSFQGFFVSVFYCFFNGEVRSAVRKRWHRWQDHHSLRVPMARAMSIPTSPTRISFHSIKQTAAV

Row | nH (Hill slope) ([1]; h-CRHR1) | αmax (maximal asymptote) ([1]; h-CRHR1) | nH (Hill slope) ([1]; h-CRHR1, listed as h-SRP) | Compound | nH [2] | EC50 [1] | Published pA50 [3] | pKi [2]
1 | 1.15 | 99.61 |  | CC[C@H](C)[C@H](NC(=O)[C@H](CO)NC(=O)[C@H](CC(C)C)NC(=O)[C@@H]1CCCN1C(=O)[C@@H]1CCCN1C(=O)[C@H](CC(=O)O)NC(=O)[C@@H](N)CC(=O)O)C(=O)N[C@@H](CC(=O)O)C(=O)N[C@@H](CC(C)C)C(=O)N[C@H](C(=O)N[C@@H](Cc1ccccc1)C(=O)N[C@@H](Cc1c[nH]cn1)C(=O)N[C@@H](CC(C)C)C(=O)N[C@@H](CC(C)C)C(=O)N[C@@H](CCCNC(=N)N)C(=O)N[C@H](C(=O)N[C@@H](CC(C)C)C(=O)N[C@@H](CC(C)C)C(=O)N[C@@H](CCC(=O)O)C(=O)N[C@@H](CC(C)C)C(=O)N[C@@H](C)C(=O)N[C@@H](CCCNC(=N)N)C(=O)N[C@H](C(=O)N[C@@H](CCC(N)=O)C(=O)N[C@@H](CO)C(=O)N[C@@H](CCC(N)=O)C(=O)N[C@@H](CCCNC(=N)N)C(=O)N[C@@H](CCC(=O)O)C(=O)N[C@@H](CCCNC(=N)N)C(=O)N[C@@H](C)C(=O)N[C@@H](CCC(=O)O)C(=O)N[C@@H](CCC(N)=O)C(=O)N[C@@H](CC(N)=O)C(=O)N[C@@H](CCCNC(=N)N)C(=O)N[C@H](C(=O)N[C@H](C(=O)N[C@@H](Cc1ccccc1)C(=O)N[C@@H](CC(=O)O)C(=O)N[C@@H](CO)C(=O)N[C@H](C(N)=O)C(C)C)[C@@H](C)CC)[C@@H](C)CC)[C@@H](C)O)[C@@H](C)O)[C@@H](C)O [SEQ ID NO: 114, DDPPLSIDLTFHLLRTLLELARTQSQRERAEQNRIIFDSV-NH2] | 0.91 ± 0.27 |  |  | 
2 |  |  | 1.61 and 1.33 and 1.26 | H-HPGSRIVLSLDVPIGLLQILLEQARARAAREQATTNARILARV-NH2 [SEQ ID NO: 117, HPGSRIVLSLDVPIGLLQILLEQARARAAREQATTNARILARV-NH2, reference compound] |  | 0.457 µM and 0.631 µM and 0.525 µM | ~9^4 | 
3 |  |  |  | H-TKFTLSLDVPTNIMNLLFNIAKAKNLRAQAAANAHLMAQI-NH2 [SEQ ID NO: 1, TKFTLSLDVPTNIMNLLFNIAKAKNLRAQAAANAHLMAQI-NH2] | 1.16 ± 0.65 | > 10 µM | ~9^4 | 4.60
